From US20170197935A1, “INHIBITORS OF DNA GYRASE FOR THE TREATMENT OF BACTERIAL INFECTIONS” (Vitas Pharma Research Private Limited, priority 2012, published 2017)
≈ marks a conversion by molar mass, not a printed value. Read-outs that look alike come from different tables or passages of the source.

Assays:
hERG [1] = biological target: T1, hERG (Homo sapiens, UniProt Q12809); conditions: BMCL, 21, 7489-7495, 2011; cited from earlier work
[2] = led to discontinuation from clinical development; North American Journal of Medical Science, 4, 537-47, 2012; cited from earlier work
[3] = tested on: Staphylococcus aureus (ATCC 29213); test: MIC by microbroth dilution, Staphylococcus aureus ATCC 29213; assay type: cell-based; conditions: ATCC29213
Protocol: (§1) Shown below are the microbiological activities of representative compounds of Formula I of the invention. The compounds were tested by the microbroth dilution method (National committee for Clinical Laboratory Standards, 2011, […]-08) and the Minimum Inhibitory Concentration (MIC) was determined.

[4] = tested on: Methicillin resistant Staphylococcus aureus (ATCC 33591); test: MIC by microbroth dilution, MRSA ATCC 33591; assay type: cell-based
Procedure, shortened: (§2)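 Activity is reported as the lowest concentration preventing growth (MIC), obtained with the NCCLS microbroth dilution protocol.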

[5] = tested on: Streptococcus pneumoniae (ATCC 6301); test: MIC by microbroth dilution, Streptococcus pneumoniae ATCC 6301; assay type: cell-based; conditions: ATCC6301
Protocol: as §1

[6] = tested on: Enterococcus faecalis (ATCC 29212); test: MIC by microbroth dilution, Enterococcus faecalis ATCC 29212; assay type: cell-based; conditions: ATCC29212
Protocol: as §1

[7] = tested on: Moraxella catarrhalis (ATCC 8176); test: MIC by microbroth dilution, Moraxella catarrhalis ATCC 8176; assay type: cell-based; conditions: ATCC8176
Protocol: as §1

E. coli (ATCC 25922) = test: MIC by microbroth dilution, E. coli ATCC 25922; assay type: cell-based; conditions: Escherichia coli
Procedure, shortened: as §2

[8] = tested on: K. pneumoniae (ATCC 700603); test: MIC by microbroth dilution, K. pneumoniae ATCC 700603; assay type: cell-based; conditions: Klebsiella pneumoniae, ATCC700603, Formula I compounds
Procedure, shortened: as §2

MRSA E9823 = test: MIC against FQ resistant clinical strain MRSA E9823; assay type: cell-based; conditions: Staphylococcus aureus, fluoroquinolone resistant clinical strain, read-out: MIC against FQ resistant strains, MRSA E9823
Protocol: (§3) Shown below are the microbiological activities of representative compounds of Formula I of the invention. The compounds were tested by the microbroth dilution method (National committee for Clinical Laboratory Standards, 2011, M07-08) and the Minimum Inhibitory Concentration (MIC) was determined.
(§4) To test if compounds are able to overcome fluoroquinolone resistance, we have determined the MICS against Fluoroquinolone (FQ) resistant clinical strains of MRSA and E. coli.

MRSA E9749 = test: MIC against FQ resistant clinical strain MRSA E9749; assay type: cell-based; conditions: Staphylococcus aureus, fluoroquinolone resistant clinical strain, read-out: MIC against FQ resistant strains, MRSA E9749
Protocol: as §3, §4

E. coli E1851 = test: MIC against FQ resistant clinical strain E. coli E1851; assay type: cell-based; conditions: Escherichia coli, fluoroquinolone resistant clinical strain, read-out: MIC against FQ resistant strains, E. coli E1851
Protocol: (§5) The compounds were tested by the microbroth dilution method (National committee for Clinical Laboratory Standards, 2011, M07-08) and the Minimum Inhibitory Concentration (MIC) was determined.

E. coli U1306 = test: MIC against FQ resistant clinical strain E. coli U1306; assay type: cell-based; conditions: Escherichia coli, fluoroquinolone resistant clinical strain, read-out: MIC against FQ resistant strains, E. coli U1306
Protocol: as §5

E. coli U5690 = test: MIC against FQ resistant clinical strain E. coli U5690; assay type: cell-based; conditions: Escherichia coli, fluoroquinolone resistant clinical strain, read-out: MIC against FQ resistant strains, E. coli U5690
Protocol: as §5

E. coli 86 = test: MIC against FQ resistant clinical strain E. coli 86; assay type: cell-based; conditions: Escherichia coli, fluoroquinolone resistant clinical strain, read-out: MIC against FQ resistant strains, E. coli 86
Protocol: as §5

E. coli Gyrase = biological target: T2, E. coli Gyrase (Escherichia coli, UniProt P0AES4+P0AES6); test: in vitro Gyrase supercoiling assay (Inspiralis kit); assay type: biochemical; conditions: 1 hour at 37° C., read-out: % inhibition of DNA supercoiling activity; for inhibition at 0.1 µM: 0.1 μM compound; for inhibition at 1 µM: 1 μM compound
T2 construct: purchased Inspiralis
Protocol: To test for target specificity, the activity of compounds was evaluated in an in vitro Gyrase assay using recombinant Gyrase protein as per the instructions of the assay kit (Inspiralis). The assay measures the ability of E. coli Gyrase to convert relaxed plasmid DNA into the supercoiled form. The enzyme is incubated with the substrate (relaxed DNA) in the presence and absence of compounds for 1 hour at 37° C. and the DNA is run on a gel at low voltage for several hours. The gel is then stained with Ethidium bromide and DNA in the different forms is quantified using DNA imaging and quantification software (Image Lab). The activity of the enzyme is proportional to the amount of supercoiled form detected.

MRSA 33591 = test: Mutation prevention concentration against MRSA 33591; assay type: cell-based
Protocol: (§6) The mutation prevention concentration or the concentration above which mutants are unlikely to be selected, was determined based on published protocols (Antimicrobial Agents and Chemotherapy, 45, 433-438, 2001).

[9] = Single dose pharmacokinetics in male Swiss albino mice; assay type: in vivo
Protocol: (§7) Compounds were dosed to male Swiss albino mice to determine the pharmacokinetic profiles.
as §7

[10] = tested on: S. aureus (MRSA ATCC 33591); test: Systemic infection model in mice against S. aureus (MRSA ATCC 33591); assay type: in vivo; conditions: 10 mg/kg i.v. one hour after infection and again 4 hours later, 15× lethal dose MRSA ATCC33591 intraperitoneally
Protocol: In order to evaluate the in vivo efficacy of the scaffold, we tested representative compounds for activity in the systemic infection model in mice (Antimicrobial Agents and Chemotherapy, 47, 2507-2512, 2003). In this model, a 15× medial lethal dose of the bacteria (MRSA ATCC33591) is administered to mice intraperiotoneally. An hour later, the compound is administered i.v. and again 4 hours later. VT-03-00061, was efficacious with a 50% survival at a dose of 10 mg/kg in this model.

hERG [11] = biological target: T1, hERG; test: biochemical
Protocol: To test the ability of the VT-03 compounds to bind the hERG channel, membranes expressing the hERG channel were incubated with radiolabeled Astemizole and displacement of the labeled ligand in the presence of compounds was measured.
To test the ability of the VT-03 compounds (of Formula II) to bind the hERG channel, membranes expressing the hERG channel were incubated with radiolabeled Astemizole and displacement of the labeled ligand in the presence of compounds was measured.

E. faecalis ATCC 51299 = test: MIC by microbroth dilution, E. faecalis ATCC 51299; assay type: cell-based; conditions: Enterococcus faecalis, ATCC51299, Formula II compounds, read-out: Minimum Inhibitory Concentration (MIC) E. faecalis ATCC 51299
Protocol: as §3
(§8) Analysis of microbiological activity of compounds shown below are the microbiological activities of representative compounds of Formula II of the invention. The compounds were tested by the microbroth dilution method as per the reference in Example 1.

Acinetobacter BAA747 = test: MIC by microbroth dilution, Acinetobacter BAA747; assay type: cell-based; conditions: Formula II compounds, read-out: Minimum Inhibitory Concentration (MIC) Acinetobacter BAA747
Protocol: as §3, §8

Pseudomonas ATCC 27853 = test: MIC by microbroth dilution, Pseudomonas ATCC 27853; assay type: cell-based; conditions: ATCC27853, Formula II compounds, read-out: Minimum Inhibitory Concentration (MIC) Pseudomonas ATCC 27853
Protocol: as §3, §8

[12] = biological target: T3, ciprofloxacin resistant recombinant Gyrase protein (with mutation S83L) (Escherichia coli, UniProt P0AES4+P0AES6, S83L); test: Gyrase supercoiling assay with ciprofloxacin resistant Gyrase (S83L); assay type: biochemical; conditions: read-out: Target specificity: % inhibition of supercoiling activity
T3 construct: purchased Inspiralis
Protocol: The enzyme is incubated with the substrate (relaxed DNA) in the presence and absence of compounds for 1 hour at 37° C. and the DNA is run on a gel at low voltage for several hours. The amount of supercoiled DNA is quantified using DNA imaging and quantification software (Image Lab). The activity of the enzyme is proportional to the amount of supercoiled form detected.

A. baumannii = test: Mutation prevention concentration and mutation frequency against A. baumannii; assay type: cell-based
Protocol: as §6
The mutation prevention concentration and mutation frequencies were determined based on published protocols, the reference of which is provided in Example 4.

[13] = ATCC33591, Formula I compounds, read-out: MIC Methicillin resistant Staphylococcus aureus (ATCC 33591)
[14] = ATCC25922, Formula I compounds, read-out: MIC E. coli (ATCC 25922)
[15] = mouse, in vivo, intravenous, 5 mg/kg b.w., single dose
[16] = mouse, in vivo, oral, 10 mg/kg b.w., single dose

Row | Compound | MIC [3] [µg/mL] | MIC [4, 13] [µg/mL] | MIC [5] [µg/mL] | MIC [6] [µg/mL] | MIC [7] [µg/mL] | MIC (E. coli (ATCC 25922); [14]) [µg/mL] | MIC [8] [µg/mL] | MIC (MRSA E9823) [µg/mL] | MIC (MRSA E9749) [µg/mL] | MIC (E. coli E1851) [µg/mL] | MIC (E. coli U1306) [µg/mL] | MIC (E. coli U5690) [µg/mL] | MIC (E. coli 86) [µg/mL] | inhibition at 0.1 µM (E. coli Gyrase) [%] | inhibition at 1 µM (E. coli Gyrase) [%] | IC50 (hERG [11]) [µM] | further results
1 | COc1ccc2ncc(C#N)c(CCN3CCC(NCc4cc5c(cn4)OCS5)CC3)c2c1 [GSK299423] | – | – | – | – | – | – | – | – | – | – | – | – | – | – | – | – | hERG binding liability (in words) (hERG [1]): serious hERG binding liability
2 | COc1ccc2ncc(F)c([C@@H](O)CC[C@@H]3CCN(CCSc4cccs4)C[C@@H]3C(=O)O)c2c1 [NXL-101] | – | – | – | – | – | – | – | – | – | – | – | – | – | – | – | – | QT prolongation (in words) [2]: causes QT prolongation
3 | COc1ccc2ncc(=O)n(CCN3CCC(NCc4csc([N+](=O)[O-])c4)CC3)c2c1 [VT-03-00057] | 0.12 (≈ 0.271 µM) | 0.25 (≈ 0.564 µM) | 0.5 (≈ 1.13 µM) | 2 (≈ 4.51 µM) | 0.5 (≈ 1.13 µM) | 2 (≈ 4.51 µM) | > 32 | 0.25 (≈ 0.564 µM) | 0.25 (≈ 0.564 µM) | 2 (≈ 4.51 µM) | 16 (≈ 36.1 µM) | 8 (≈ 18 µM) | 16 (≈ 36.1 µM) | 61.4 | 90.6 | – | –
4 | COc1ccc2ncc(C#N)c(CCN3CCC(NCc4ccc(C)c([N+](=O)[O-])c4)CC3)c2c1 [VT-03-00061] | 0.015 (≈ 0.0326 µM) | 0.015 (≈ 0.0326 µM) | 0.015 (≈ 0.0326 µM) | 0.25 (≈ 0.544 µM) | 0.12 (≈ 0.261 µM) | 1 (≈ 2.18 µM) | 8 (≈ 17.4 µM) | ≤ 0.0075 | 0.015 (≈ 0.0326 µM) | 0.5 (≈ 1.09 µM) | 2 (≈ 4.35 µM) | 2 (≈ 4.35 µM) | 2 (≈ 4.35 µM) | 99.8 | 99.7 | > 30 | Mutation prevention concentration (MRSA 33591): 0.12 µg/mL; oral bioavailability (in words) [9]: orally bioavailable; AUC(0-inf) [9, 15]: 368 ng·h/mL; Cmax [9, 15]: 400 ng/mL; half-life [9, 15]: 1.64 h; AUC(0-inf) [9, 16]: 104 ng·h/mL; Cmax [9, 16]: 51.5 ng/mL; half-life [9, 16]: 1.74 h; F % (Oral bioavaialbility) ([9]; oral 10 mg/kg vs intravenous 5 mg/kg): 11.51%; survival [10]: 50%
5 | Cc1ccc(CNC2CCN(CCn3c(=O)cnc4ccc(F)cc43)CC2)cc1F [VT-03-00122] | – | – | – | – | – | – | – | – | – | – | – | – | – | – | – | > 30 | MIC ([4]; Formula II compounds, read-out: Minimum Inhibitory Concentration (MIC) MRSA ATCC 33591): 0.06 µg/mL (≈ 0.145 µM); MIC (E. coli (ATCC 25922); ATCC25922, Formula II compounds, read-out: Minimum Inhibitory Concentration (MIC) E. coli ATCC 25922): 0.25 µg/mL (≈ 0.606 µM); AUC(0-t) ([9]; mouse, in vivo, iv, 5 mg/kg): 242 ng·h/mL; Cmax ([9]; mouse, in vivo, iv, 5 mg/kg): 381 ng/mL; Tmax ([9]; mouse, in vivo, iv, 5 mg/kg): 0.16 h; half-life ([9]; mouse, in vivo, iv, 5 mg/kg): 0.49 h; bioavailability ([9]; mouse, in vivo, oral 10 mg/kg vs i.v. 5 mg/kg): 7.69%; AUC(0-t) ([9]; mouse, in vivo, oral, 10 mg/kg): 37.3 ng·h/mL; Cmax ([9]; mouse, in vivo, oral, 10 mg/kg): 28.1 ng/mL; Tmax ([9]; mouse, in vivo, oral, 10 mg/kg): 1 h; MIC (E. faecalis ATCC 51299): 0.5 µg/mL (≈ 1.21 µM); MIC (Acinetobacter BAA747): 0.25 µg/mL (≈ 0.606 µM); MIC (Pseudomonas ATCC 27853): 16 µg/mL (≈ 38.8 µM); inhibition at 0.1 µM [12]: 95.5%; inhibition at 1 µM [12]: 97.1%; Mutation prevention concentration against A. baumannii (A. baumannii): 16 µg/mL; Mutation frequency (A. baumannii; A. baumannii, at 8 μg/ml): 1.10 * 10^−8 at 8 μg/ml
